Laboratory results: patent US8288424B2, “Substituted tetrahydroimidazopyridine compounds and the use thereof in the treatment of pain and other conditions” (Gruenenthal GmbH, priority 2008, dated 2012)

Biological target: T1, KCNQ2/3 channels (Homo sapiens, UniProt O43525+O43526)
T1 construct: expressed in transfected cells; host or cells: CHO-K1
Assay: Fluorescence assay using a voltage-sensitive dye
Type: cell-based
Settings: CHO-K1 cells expressing KCNQ2/3 channels, agonistic activity; for activation at 10 µM: 10 μmol test substance, read-out: % Stimulation [10 μmol] Average
Procedure, shortened: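 CHO-K1 cells expressing KCNQ2/3 loaded with membrane-potential dye in ES buffer (1 mM KCl, pH 7.4), compound 30 min at room temperature, then KCl added (final 92 mM). Fluorescence (ex 525/em 560 nm) read before (F1) and at peak after (F2) KCl; agonism from F2/F1 change versus buffer controls, EC50 calculated.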

Compound	EC50	activation at 10 µM
O=C(c1cn2c(n1)CCC(c1ccccc1)C2)N1CCN(c2cccc(C(F)(F)F)c2)CC1 (centres unmarked) [Compound 53, (6-Phenyl-5,6,7,8-tetrahydroimidazo[1,2-a]pyridin-2-yl)(4-(3-(trifluoromethyl)phenyl)piperazin-1-yl)methanone]	8.34 µM	–
O=C(c1cn2c(n1)CCC(c1cccc(C(F)(F)F)c1)C2)N1CCCC1 (centres unmarked) [Compound 31, Pyrrolidin-1-yl(6-(3-(trifluoromethyl)phenyl)-5,6,7,8-tetrahydroimidazo[1,2-a]pyridin-2-yl)methanone]	–	17.6%
Cc1cc(C2CCc3nc(C(=O)NC(C)CCc4ccccc4)cn3C2)ccc1F (centres unmarked) [Compound 72, 6-(4-Fluoro-3-methylphenyl)-N-(4-phenylbutan-2-yl)-5,6,7,8-tetrahydroimidazo[1,2-a]pyridine-2-carboxamide]	–	103%
COc1c(C)cc(C2CCc3nc(C(=O)N4CCC(Cc5ccccc5)CC4)cn3C2)cc1C (centres unmarked) [Compound 55, (4-Benzylpiperidin-1-yl)(6-(4-methoxy-3,5-dimethylphenyl)-5,6,7,8-tetrahydroimidazo-[1,2-a]pyridin-2-yl)methanone]	5.42 µM	–
COc1ccc(F)cc1C1CCc2nc(C(=O)N3CCN(c4cccc(C(F)(F)F)c4)CC3)cn2C1 (centres unmarked) [Compound 7, (6-(5-Fluoro-2-methoxyphenyl)-5,6,7,8-tetrahydroimidazo[1,2-a]pyridin-2-yl)(4-(3-(trifluoromethyl)phenyl)piperazin-1-yl)methanone]	–	30%

More lines, now with the values ahead:

EC50	activation at 10 µM	Compound
–	20.7%	CC1(C)CC2CC(C)(CN2C(=O)c2cn3c(n2)CCC(c2cccc(F)c2)C3)C1 (centres unmarked) [Compound 4, (6-(3-Fluorophenyl)-5,6,7,8-tetrahydroimidazo[1,2-a]pyridin-2-yl)(1,3,3-trimethyl-6-azabicyclo[3.2.1]octan-6-yl)methanone]
1.2 µM	–	Cc1cc(C2CCc3nc(C(=O)NC(C)CCc4cccc(C(F)(F)F)c4)cn3C2)ccc1F (centres unmarked) [Compound 86, 6-(4-Fluoro-3-methylphenyl)-N-(4-(3-(trifluoromethyl)phenyl)butan-2-yl)-5,6,7,8-tetrahydroimidazo[1,2-a]pyridine-2-carboxamide]
–	15.5%	CCc1ccc(C2CCc3nc(C(=O)N4CCCC4)cn3C2)cc1 (centres unmarked) [Compound 37, (6-(4-Ethylphenyl)-5,6,7,8-tetrahydroimidazo[1,2-a]pyridin-2-yl)(pyrrolidin-1-yl)methanone]
2.33 µM	–	O=C(c1cn2c(n1)CCC(c1ccc(Oc3ccccc3)cc1)C2)N1CCCC1 (centres unmarked) [Compound 25, (6-(4-Phenoxyphenyl)-5,6,7,8-tetrahydroimidazo[1,2-a]pyridin-2-yl)(pyrrolidin-1-yl)methanone]
–	47.9%	Cc1cc(C2CCc3nc(C(=O)NCCC4CCCCC4)cn3C2)ccc1F (centres unmarked) [Compound 88, N-(2-Cyclohexylethyl)-6-(4-fluoro-3-methylphenyl)-5,6,7,8-tetrahydroimidazo[1,2-a]pyridine-2-carboxamide]
6.21 µM	–	CCCCNC(=O)c1cn2c(n1)CCC(c1ccc(Oc3ccccc3)cc1)C2 (centres unmarked) [Compound 19, N-Butyl-6-(4-phenoxyphenyl)-5,6,7,8-tetrahydroimidazo[1,2-a]pyridine-2-carboxamide]
